Data from patent US20240325353A1, “COMPOUND FOR TREATMENT OF COGNITIVE DISORDERS” (Syndesi Therapeutics SA, priority 2021, published 2024).

System: brain activity (BOLD signal)
Experiment: pharmaco-MRI (BOLD) neuroimaging study in conscious rats
Format: in vivo, rat
Conditions: for median number of positive voxels (positive BOLD volume of activation): 20-30 min post injection
Protocol: Test Substance, Reference Substance(s), and Vehicle: the compound of example 1 test substance for dose-dependent change in BOLD signal was provided by Syndesi along with the formula for the vehicle.
Subjects: Forty-eight male Sprague Dawley rats weighing ca 275-300 g were obtained from Charles River Laboratories (Wilmington, MA, USA). Rat were maintained on a 12:12 hour light:dark cycle with a lights on at 0700 hours and allowed access to food and water ad libitum. All rats were acquired and cared for in accordance with the guidelines published in the Guide for the Care and Use of Laboratory Animals (National Institutes of Health Publications No. 85-23, Revised 1985) and adhered to the National Institutes of Health and the American Association for Laboratory Animal Science guidelines.
Acclimation: To reduce the stress associated with head restraint, rats were acclimated to the restraining system (head holder and body tube) one week prior to their actual imaging session. The design of the restraining system (Animal Imaging Research, Holden MA, USA) included a padded head support obviating the need for ear bars helping to reduce animal discomfort while minimizing motion artifact. These acclimation sessions were run each day for 4-5 consecutive days. Rats were briefly anesthetized with 2-3% isoflurane while being secured into the head holder. The forepaws were secured with tape. When fully conscious, the imaging system is placed into a black opaque box “mock scanner” for 30 min with a tape-recording of the MRI pulse sequence to simulate the bore of the magnet and the imaging protocol. A significant decline in respiration, heart rate, motor movements, and plasma corticosterone has been measured when the first and last acclimation periods are compared (King et al., 2005). The reduction in autonomic and somatic measures of arousal and stress improve the signal resolution and quality of the images.
Image Acquisition: Animals were scanned at 300 MHz using a quadrature transmit/receive volume coil built into the rat head holder and restraining system for awake animal imaging (Animal Imaging Research, Holden, MA, USA). The design of the coil provided complete coverage of the brain from olfactory bulbs to brain stem with excellent B1 field homogeneity. Experiments were conducted using a Bruker Biospec 7.0 T/20-cm USR horizontal magnet (Bruker, Billerica, MA, USA) and a 20-G/cm magnetic field gradient insert (ID=12 cm) capable of a 120-μs rise time. At the beginning of each imaging session, a high-resolution anatomical data set was collected using the RARE pulse sequence [22 slice; 1.0 mm; field of view (FOV) 3.0 cm; matrix size 256×256; repetition time (TR) 2.5 s; echo time (TE) 12 ms; NEX 2; 3 min acquisition time]. Functional images were acquired using a multi-slice half-Fourier acquisition single-shot turbo spin echo (HASTE) pulse sequence. Bruker Paravision automatically finds the basic frequency, shims, power requirements for 90° and 180° pulses and sets the receiver gain. A single scanning session acquired 22 slices, 1.0 mm thick, every 6.0 s (TR), using an effective TE of 48 ms, FOV 3.0 cm, matrix size 96×96, NEX 1, and repeated 450 times for a total scanning time of 45 min. The in-plane pixel resolution was 312 μm2.
Data Processing: Data are coregistered to a mean functional image using SPM8's coregistrational code with the following parameters: Quality: 0.97, Smoothing: 0.35 mm, Separation: 0.5 mm. Gaussian smoothing was performed with a FWHM of 0.8 mm. Images were aligned and registered to the 3D rat brain atlas, segmented and labeled with 171 discrete anatomical regions. The alignment process was facilitated by an interactive graphic user interface. The registration process involved translation, rotation and scaling independently and in all three dimensions. Matrices that transformed each subject's anatomy were used to embed each slice within the atlas. […]

## O=C1C[C@H](c2cc(F)c(F)c(F)c2)CN1Cn1ncnc1Cl [compound of example 1, (4R)-1-[(5-chloro-1H-1,2,4-triazol-1-yl)methyl]-4-(3,4,5-trifluorophenyl)pyrrolidin-2-one]
0.1 mg/kg i.p.
  effect on the volume of activation (dose response, inverted U): greatest effect
0.1 mg/kg versus vehicle, of 171 brain regions
  brain areas significantly activated, low dose versus vehicle: 30/171
1.0 mg/kg i.p.
  effect on the volume of activation (dose response, inverted U): little or no activation
CA1 dorsal, 0.1 mg/kg i.p.
  median number of positive voxels (positive BOLD volume of activation): 23
CA1 dorsal, 0.3 mg/kg i.p.
  median number of positive voxels (positive BOLD volume of activation): 15
CA1 dorsal, 1.0 mg/kg i.p.
  median number of positive voxels (positive BOLD volume of activation): 0
Accumbens core, 0.1 mg/kg i.p.
  median number of positive voxels (positive BOLD volume of activation): 13
Accumbens core, 0.3 mg/kg i.p.
  median number of positive voxels (positive BOLD volume of activation): 3
Accumbens core, 1.0 mg/kg i.p.
  median number of positive voxels (positive BOLD volume of activation): 0
Accumbens shell, 0.1 mg/kg i.p.
  median number of positive voxels (positive BOLD volume of activation): 8
Accumbens shell, 0.3 mg/kg i.p.
  median number of positive voxels (positive BOLD volume of activation): 10
Accumbens shell, 1.0 mg/kg i.p.
  median number of positive voxels (positive BOLD volume of activation): 2
Anterior cingulate area, 0.1 mg/kg i.p.
  median number of positive voxels (positive BOLD volume of activation): 67
Anterior cingulate area, 0.3 mg/kg i.p.
  median number of positive voxels (positive BOLD volume of activation): 37
Anterior cingulate area, 1.0 mg/kg i.p.
  median number of positive voxels (positive BOLD volume of activation): 2
Anterior pretectal nucleus, 0.1 mg/kg i.p.
  median number of positive voxels (positive BOLD volume of activation): 7
Anterior pretectal nucleus, 0.3 mg/kg i.p.
  median number of positive voxels (positive BOLD volume of activation): 5
Anterior pretectal nucleus, 1.0 mg/kg i.p.
  median number of positive voxels (positive BOLD volume of activation): 0
Central amygdaloid nucleus, 0.1 mg/kg i.p.
  median number of positive voxels (positive BOLD volume of activation): 8
Central amygdaloid nucleus, 0.3 mg/kg i.p.
  median number of positive voxels (positive BOLD volume of activation): 4
Central amygdaloid nucleus, 1.0 mg/kg i.p.
  median number of positive voxels (positive BOLD volume of activation): 0
Dentate gyrus dorsal, 0.1 mg/kg i.p.
  median number of positive voxels (positive BOLD volume of activation): 17
Dentate gyrus dorsal, 0.3 mg/kg i.p.
  median number of positive voxels (positive BOLD volume of activation): 9
Dentate gyrus dorsal, 1.0 mg/kg i.p.
  median number of positive voxels (positive BOLD volume of activation): 0
Dentate gyrus ventral, 0.1 mg/kg i.p.
  median number of positive voxels (positive BOLD volume of activation): 14
Dentate gyrus ventral, 0.3 mg/kg i.p.
  median number of positive voxels (positive BOLD volume of activation): 14
Dentate gyrus ventral, 1.0 mg/kg i.p.
  median number of positive voxels (positive BOLD volume of activation): 0
Dorsal medial striatum, 0.1 mg/kg i.p.
  median number of positive voxels (positive BOLD volume of activation): 39
Dorsal medial striatum, 0.3 mg/kg i.p.
  median number of positive voxels (positive BOLD volume of activation): 30
Dorsal medial striatum, 1.0 mg/kg i.p.
  median number of positive voxels (positive BOLD volume of activation): 0
Dorsal raphe, 0.1 mg/kg i.p.
  median number of positive voxels (positive BOLD volume of activation): 1
Dorsal raphe, 0.3 mg/kg i.p.
  median number of positive voxels (positive BOLD volume of activation): 0
Dorsal raphe, 1.0 mg/kg i.p.
  median number of positive voxels (positive BOLD volume of activation): 0
Endopiriform nucleus, 0.1 mg/kg i.p.
  median number of positive voxels (positive BOLD volume of activation): 2
Endopiriform nucleus, 0.3 mg/kg i.p.
  median number of positive voxels (positive BOLD volume of activation): 0
Endopiriform nucleus, 1.0 mg/kg i.p.
  median number of positive voxels (positive BOLD volume of activation): 0
Granular cell layer, 0.1 mg/kg i.p.
  median number of positive voxels (positive BOLD volume of activation): 70
Granular cell layer, 0.3 mg/kg i.p.
  median number of positive voxels (positive BOLD volume of activation): 52
Granular cell layer, 1.0 mg/kg i.p.
  median number of positive voxels (positive BOLD volume of activation): 9
Habenula nucleus, 0.1 mg/kg i.p.
  median number of positive voxels (positive BOLD volume of activation): 11
Habenula nucleus, 0.3 mg/kg i.p.
  median number of positive voxels (positive BOLD volume of activation): 10
Habenula nucleus, 1.0 mg/kg i.p.
  median number of positive voxels (positive BOLD volume of activation): 0
Infralimbic ctx, 0.1 mg/kg i.p.
  median number of positive voxels (positive BOLD volume of activation): 19
Infralimbic ctx, 0.3 mg/kg i.p.
  median number of positive voxels (positive BOLD volume of activation): 21
Infralimbic ctx, 1.0 mg/kg i.p.
  median number of positive voxels (positive BOLD volume of activation): 4
Lateral amygdaloid nucleus, 0.1 mg/kg i.p.
  median number of positive voxels (positive BOLD volume of activation): 5
Lateral hypothalamus, 0.1 mg/kg i.p.
  median number of positive voxels (positive BOLD volume of activation): 56
Lateral hypothalamus, 0.3 mg/kg i.p.
  median number of positive voxels (positive BOLD volume of activation): 59
Lateral hypothalamus, 1.0 mg/kg i.p.
  median number of positive voxels (positive BOLD volume of activation): 2
Lateral orbital ctx, 0.1 mg/kg i.p.
  median number of positive voxels (positive BOLD volume of activation): 29
Lateral orbital ctx, 0.3 mg/kg i.p.
  median number of positive voxels (positive BOLD volume of activation): 14
Lateral orbital ctx, 1.0 mg/kg i.p.
  median number of positive voxels (positive BOLD volume of activation): 1
